In US12534436B2, “Disubstituted adamantyl derivative or pharmaceutically acceptable salt thereof, and pharmaceutical composition for suppressing cancer growth comprising same as active ingredient” (ONECUREGEN CO., LTD., priority 2020, dated 2026):

Assays:
HepG2 xenografted tumors = test: HepG2 xenograft mouse model; assay type: in vivo, mice
From the text: In the HepG2 xenograft mouse model, the efficacy of LW1564 (compound 21-3) on tumor proliferation was investigated. All animal experiments were approved and performed according to the guidelines of the Institutional Animal Care and Use Committee of the Korea Research Institute of Bioscience & Biotechnology (Daejeon, Korea). Specific pathogen-free female nude mice (6 weeks old) were inoculated with HepG2 cells (1×10^7) subcutaneously on the right flank. When tumor volumes reached 100 to 150 mm^3, mice were randomly assigned to vehicle and LW1564 (compound 21-3) treatment groups (n=6). LW1564 (compound 21-3) (10 mg/kg) was administered intraperitoneally daily for 2 weeks. The tumor size was measured using a microcalliper, and the tumor volume was calculated using a standard volume: length×width^2×0.5. Significant differences between the two groups were determined by Student's t-test.

[1] = system: HIF-1 (HRE-dependent luciferase reporter); test: HRE-luciferase assay, screening of HIF-1 inhibitors in HCT116 cells; assay type: cell-based, human; conditions: Homo sapiens, HCT-116; HCT116 cells stably expressing HRE-dependent luciferase reporter, hypoxic conditions, 12 hours; means of three experiments
Procedure: HCT116 cells stably expressing the HRE-dependent luciferase reporter were treated with the disubstituted adamantyl derivative prepared in the above example under hypoxic conditions for 12 hours before measuring luciferase activity.
(§1) In HCT116 cells treated with disubstituted adamantyl derivatives, luciferase activity was investigated using HRE-luciferase assay. The HRE-luciferase reporter assay was performed as previously described using the luciferase assay system (Promega, Madison, WI, USA) according to the manufacturer's instructions (Naik, R. et al. Synthesis and Structure-Activity Relationship of (E)Phenoxyacrylic Amide Derivatives as Hypoxia-Inducible Factor (HIF) 1α Inhibitors. J. Med. Chem. 55, 10564-1057 (2012)). Luciferase activity was measured using a Victor X light luminescence reader (PerkinElmer, Boston, MA, USA).

HepG2 and A549 cells = test: Cell proliferation by live cell imaging system IncuCyte ZOOM; assay type: cell-based, human; conditions: IncuCyte ZOOM (FIG. 1C)
HIF-1α activity = test: HRE-luciferase assay in HepG2 cells; assay type: cell-based; conditions: Homo sapiens; HepG2 cells (FIG. 2A)
Procedure: as §1, with “the presence of oxygen, when the proline residue of the oxygen-dependent degradation (ODD) domain of HIF-1α is hydroxylated by prolyl hydroxylase (PHD), HIF-1α degradation is promoted by binding to Von Hippel-Lindau syndrome (VHL) associated” for “HCT116 cells treated”, “VCB-Cul2 E3 ligase that induces proteolysis. […] First, HIF-1α” for “disubstituted adamantyl derivatives, luciferase”, “assay in HepG2 cells treated with LW1564 (compound 21-3).” for “assay.”, “la” for “1α”

ATP production = ATP production and ATP content (ENLITEN ATP assay kit), HepG2 cells; assay type: cell-based, human
Procedure: Next, the effect of mitochondrial respiration on ATP production by oxidative phosphorylation was evaluated by comparing the amount of ATP produced by glycolysis decomposition and mitochondrial respiration in the presence of LW1564 (compound 21-3). ATP content was determined as described in “Chou, T. C. Theoretical basis, experimental design, and computerized simulation of synergism and antagonism in drug combination studies. Pharmacol. Rev. 58, 621-681 (2006).” After HepG2 cells were seeded and incubated with LW1564 (compound 21-3) for 6 hours, ATP content was measured using an ENLITEN® ATP assay kit (Promega, Madison, WI, USA) according to the manufacturer's instructions. Under normoxic conditions, HepG2 cells gained 47% of ATP by mitochondrial respiration and 53% by glycolysis decomposition. […] Compensatory upregulation of this degradation in response to suppression of oxidative phosphorylation occurred by AMPK activation, which was induced by a high AMP/ATP ratio.

COc1cc2c(cc1OC)CN(C(=O)C13CC4CC(C1)CC(c1ccc(OCC(=O)N5CCN(Cc6ccc(C(F)(F)F)cc6)CC5)cc1)(C4)C3)CC2 [Compound 21c, 2-(4-(3-(6,7-Dimethoxy-1,2,3,4-tetrahydroisoquinoline-2-carbonyl)adamantan-1-yl)phenoxy)-1-(4-(4-(trifluoromethyl)benzyl)piperazin-1-yl) ethanone]
weight of the tumors removed from the mice (HepG2 xenografted tumors; 10 mg/kg intraperitoneally daily for 2 weeks (FIG. 6 middle)): reduced | reduction in tumor size compared to the control group (HepG2 xenografted tumors; 10 mg/kg intraperitoneally daily for 2 weeks, female nude mice (FIG. 6 left)): 67% | IC50 [1]: 1.1 µM | proliferation inhibition, live cell imaging (HepG2 and A549 cells): induced proliferation inhibition of HepG2 and A549 cells in a dose-dependent manner | IC50 (HIF-1α activity): 1.2 µM | glycolysis-derived ATP production (ATP production; HepG2 cells (FIG. 3B)): increased | total ATP production, short period of time (ATP production; HepG2 cells (FIG. 3B)): slightly decreased total ATP production | intracellular total ATP levels, longer period (ATP production; HepG2 cells (FIG. 3C)): significantly decreased intracellular total ATP levels | mitochondrial-derived ATP production (ATP production; HepG2 cells, normoxic, untreated cells 47% of ATP by mitochondrial respiration (FIG. 3B)): 16%
